{
  "source": "patent US20250074939A1",
  "about": "“SEA URCHIN-DERIVED PEPTIDE AND USE THEREOF” (NATIONAL MARINE BIODIVERSITY INSTITUTE OF KOREA, priority 2021, published 2025)",
  "key": {"[1]": {"target": "T1, recombinant human vasopressin V1B receptor (Homo sapiens, UniProt P47901)", "assay": "cell-based"}, "[2]": {"target": "T2, recombinant human vasopressin V2 receptor (Homo sapiens, UniProt P30518)", "assay": "cell-based"}, "[3]": {"target": "T3, recombinant human oxytocin receptor (Homo sapiens, UniProt P30559)", "T3 sequence (P30559 whole entry)": "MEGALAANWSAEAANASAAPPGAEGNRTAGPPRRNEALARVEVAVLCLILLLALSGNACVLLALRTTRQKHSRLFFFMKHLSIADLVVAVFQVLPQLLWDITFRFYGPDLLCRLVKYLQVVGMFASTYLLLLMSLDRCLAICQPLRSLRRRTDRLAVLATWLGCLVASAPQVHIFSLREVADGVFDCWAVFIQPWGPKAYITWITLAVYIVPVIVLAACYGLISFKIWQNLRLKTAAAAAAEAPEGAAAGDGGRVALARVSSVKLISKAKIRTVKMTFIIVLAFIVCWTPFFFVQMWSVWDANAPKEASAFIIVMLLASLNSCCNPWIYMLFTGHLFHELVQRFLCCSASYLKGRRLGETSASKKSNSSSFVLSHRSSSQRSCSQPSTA", "assay": "cell-based"}, "[4]": {"target": "T1, recombinant human vasopressin V1B receptor"}, "[5]": {"system": "tube foot and esophageal tissues isolated from Echinus esculentus", "conditions": "cited from earlier work"}, "[6]": {"target": "T4, recombinant human vasopressin V1A receptor (Homo sapiens, UniProt P37288)", "T4 sequence (P37288 whole entry)": "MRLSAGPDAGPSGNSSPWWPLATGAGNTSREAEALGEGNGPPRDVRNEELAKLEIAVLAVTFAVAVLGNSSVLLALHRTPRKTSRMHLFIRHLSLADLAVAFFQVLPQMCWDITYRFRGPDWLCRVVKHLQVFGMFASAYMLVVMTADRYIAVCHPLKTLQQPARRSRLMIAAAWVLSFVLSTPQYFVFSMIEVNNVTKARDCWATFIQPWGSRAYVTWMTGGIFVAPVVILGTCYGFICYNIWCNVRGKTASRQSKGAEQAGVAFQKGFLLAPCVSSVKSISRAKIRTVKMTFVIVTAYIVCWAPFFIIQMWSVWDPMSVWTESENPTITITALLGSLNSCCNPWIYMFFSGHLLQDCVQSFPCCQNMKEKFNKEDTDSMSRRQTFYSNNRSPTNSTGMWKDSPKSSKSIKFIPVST", "assay": "cell-based"}, "[7]": {"target": "T4, recombinant human vasopressin V1A receptor", "assay": "cell-based or functional assay"}, "[8]": {"target": "T5, recombinant human vasopressin V1B receptor (human) (UniProt P47901)", "T5 sequence (looked up)": "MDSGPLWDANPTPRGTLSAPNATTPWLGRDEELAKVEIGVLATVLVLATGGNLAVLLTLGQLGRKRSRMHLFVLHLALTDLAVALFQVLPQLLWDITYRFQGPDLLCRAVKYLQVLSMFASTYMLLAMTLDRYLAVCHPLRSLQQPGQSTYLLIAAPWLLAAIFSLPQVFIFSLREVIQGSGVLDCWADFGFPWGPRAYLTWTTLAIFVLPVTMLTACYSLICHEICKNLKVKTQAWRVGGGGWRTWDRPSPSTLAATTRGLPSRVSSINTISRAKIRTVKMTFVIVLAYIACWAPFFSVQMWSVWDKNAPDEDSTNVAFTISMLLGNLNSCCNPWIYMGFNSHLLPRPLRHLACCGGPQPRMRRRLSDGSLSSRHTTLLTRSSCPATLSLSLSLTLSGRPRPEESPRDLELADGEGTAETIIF", "assay": "cell-based or functional assay"}, "[9]": {"target": "T2, recombinant human vasopressin V2 receptor", "assay": "cell-based or functional assay"}, "[10]": {"target": "T3, recombinant human oxytocin receptor", "assay": "cell-based or functional assay"}},
  "note": "Where a SMILES comes first, the peptide text is derived from it. Bridges are numbered along the chain shown (N, C = ends).",
  "data": [
    {"compound": "CC[C@H](C)[C@@H]1NC(=O)[C@H](Cc2ccccc2)NC(=O)[C@@H](N)CSSC[C@@H](C(=O)N2CCC[C@H]2C(=O)N[C@@H](CCCCN)C(=O)NCC(N)=O)NC(=O)[C@H](CC(N)=O)NC(=O)[C@H](CO)NC1=O", "note": "[Echinotocin] (H-CFISNCPKG-NH2; disulfide 1-6; N-terminus assumed)", "values": [
      {"measurement": "EC50", "setting": "[1]", "value": 49.1, "unit": "nM"},
      {"measurement": "EC50", "setting": "[2]", "value": 3.68, "unit": "nM"},
      {"measurement": "IC50", "setting": "[3]", "value": 1700, "unit": "nM"},
      {"measurement": "receptor selectivity at appropriate concentration", "setting": "[4]", "value": "selectively activates only the V1B receptor and has little effect on other receptors"},
      {"measurement": "contraction of isolated tube foot and esophageal tissues", "setting": "[5]", "value": "effective in contracting tube foot and esophageal tissues"},
      {"measurement": "IC50", "setting": "[6]", "value": 1000, "unit": "nM"}
    ]},
    {"compound": "Echinotocin (Strongylocentrotus purpuratus-derived peptide, SEQ ID NO: 1)", "values": [
      {"measurement": "receptor inhibition: intracellular calcium response to 10 nM vasopressin (calcium dye fluorescence imaging)", "setting": "[7]", "value": 1, "unit": "µM"},
      {"measurement": "receptor activation: increase of intracellular calcium concentration (calcium dye fluorescence imaging), relative to 0.1 µM vasopressin", "setting": "[8]", "value": 49.1, "unit": "nM"},
      {"measurement": "receptor activation: intracellular cAMP accumulation (HTRF), relative to 1 nM vasopressin", "setting": "[9]", "value": 3.68, "unit": "nM"},
      {"measurement": "receptor inhibition: intracellular calcium response to 30 nM oxytocin (calcium dye fluorescence imaging)", "setting": "[10]", "value": 1.7, "unit": "UM"}
    ]}
  ]
}
